Experiments:
[1] = test system: human breast cancer cell lines; conditions: six of eight cancer lines inhibited; cited from earlier work
mTOR = mTOR (Homo sapiens, UniProt P42345); assay: mTOR assay (phosphorylation of 4eBP1, [γ33P]-ATP filter plate); format: biochemical; conditions: 10 μM ATP, 1 hour at room temperature
Procedure: Truncated mTOR kinase and His-tagged 4eBP1 were produced in-house. [γ^33P]-ATP was purchased from Amersham (GE Healthcare). All chemicals, unless otherwise stated, were from Sigma-Aldrich.
Phosphorylation assays were initially performed in a final volume of 20 μL in 384-well polypropylene plate (Greiner). Compounds were typically tested over the range from 100 μM to 0.006 μM, in 8 step dilutions, in duplicate. 10 μL/well of 2× Enzyme-Substrate solution (1.5 μg/mL mTOR, 40 μg/mL 4eBP1 in 1× assay buffer: 10 mM Hepes pH 7.5, 50 mM NaCl and 10 mM MnCl2) were first added to the sample plate containing 1 μL/well of test compound in neat DMSO. The reaction was initiated by adding 10 μL/well of 20 μM ATP solution (final assay concentration 10 μM ATP and 0.4 μCi/well of [γ^33P]-ATP). After 1 hour incubation at room temperature, the reaction was terminated with 40 μL/well of 20 mM EDTA/1 mM ATP solution.
50 μL/well of the stopped reaction mix was then transferred to 384-well MultiScreenHTS-PH filter plate (Millipore) pre-added with 50 μL/well of 1% phosphoric acid. The plate was washed 4 times with 120 μL/well of 0.5% phosphoric acid via vacuum filtration. Finally, 10 μL/well of Optiphase™ SuperMix liquid scintillation cocktail (Perkin Elmer) was added. After minimum 1 hour of incubation, counting was performed in a Wallac MicroBeta TriLux scintillation counter using coincidence counting mode with crosstalk correction.

PI3K p110α/p85 = target: T1, PI3K p110α/p85 (Homo sapiens, UniProt P42336); assay: PI3K assay ([γ33P]ATP, PtdIns/PtdSer coated plates); format: biochemical; conditions: 2 μM ATP, 1 hour at RT; read-out: IC50 (PI3Kα)
T1 construct: made in house
T1 sequence (P42336 whole entry): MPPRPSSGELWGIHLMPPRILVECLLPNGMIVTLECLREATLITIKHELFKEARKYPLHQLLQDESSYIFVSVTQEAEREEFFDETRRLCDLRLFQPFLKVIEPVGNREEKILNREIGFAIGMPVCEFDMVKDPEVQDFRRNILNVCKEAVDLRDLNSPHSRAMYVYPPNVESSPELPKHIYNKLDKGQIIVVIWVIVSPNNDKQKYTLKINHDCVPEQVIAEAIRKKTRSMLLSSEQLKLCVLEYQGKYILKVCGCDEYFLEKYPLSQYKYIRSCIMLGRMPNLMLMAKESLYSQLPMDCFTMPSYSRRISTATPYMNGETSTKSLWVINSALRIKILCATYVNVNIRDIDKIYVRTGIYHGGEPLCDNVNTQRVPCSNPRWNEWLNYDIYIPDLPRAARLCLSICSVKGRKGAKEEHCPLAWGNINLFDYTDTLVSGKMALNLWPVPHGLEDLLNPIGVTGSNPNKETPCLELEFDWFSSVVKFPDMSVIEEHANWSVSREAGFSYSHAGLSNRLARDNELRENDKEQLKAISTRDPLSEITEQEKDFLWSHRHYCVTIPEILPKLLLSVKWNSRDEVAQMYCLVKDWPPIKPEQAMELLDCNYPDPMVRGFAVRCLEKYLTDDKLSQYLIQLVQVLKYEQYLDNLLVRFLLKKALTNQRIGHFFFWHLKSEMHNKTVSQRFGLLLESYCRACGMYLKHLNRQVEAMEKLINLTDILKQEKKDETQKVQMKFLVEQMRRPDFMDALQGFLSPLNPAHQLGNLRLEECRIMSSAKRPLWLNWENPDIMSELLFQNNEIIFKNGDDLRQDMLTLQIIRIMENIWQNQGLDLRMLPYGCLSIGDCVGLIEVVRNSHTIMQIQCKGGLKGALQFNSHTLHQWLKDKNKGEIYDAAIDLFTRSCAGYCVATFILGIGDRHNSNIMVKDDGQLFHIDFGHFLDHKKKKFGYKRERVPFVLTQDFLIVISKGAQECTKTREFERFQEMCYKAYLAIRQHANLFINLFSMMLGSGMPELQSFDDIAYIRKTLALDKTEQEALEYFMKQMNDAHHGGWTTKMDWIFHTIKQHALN
T1 sequence (P27986 whole entry partner): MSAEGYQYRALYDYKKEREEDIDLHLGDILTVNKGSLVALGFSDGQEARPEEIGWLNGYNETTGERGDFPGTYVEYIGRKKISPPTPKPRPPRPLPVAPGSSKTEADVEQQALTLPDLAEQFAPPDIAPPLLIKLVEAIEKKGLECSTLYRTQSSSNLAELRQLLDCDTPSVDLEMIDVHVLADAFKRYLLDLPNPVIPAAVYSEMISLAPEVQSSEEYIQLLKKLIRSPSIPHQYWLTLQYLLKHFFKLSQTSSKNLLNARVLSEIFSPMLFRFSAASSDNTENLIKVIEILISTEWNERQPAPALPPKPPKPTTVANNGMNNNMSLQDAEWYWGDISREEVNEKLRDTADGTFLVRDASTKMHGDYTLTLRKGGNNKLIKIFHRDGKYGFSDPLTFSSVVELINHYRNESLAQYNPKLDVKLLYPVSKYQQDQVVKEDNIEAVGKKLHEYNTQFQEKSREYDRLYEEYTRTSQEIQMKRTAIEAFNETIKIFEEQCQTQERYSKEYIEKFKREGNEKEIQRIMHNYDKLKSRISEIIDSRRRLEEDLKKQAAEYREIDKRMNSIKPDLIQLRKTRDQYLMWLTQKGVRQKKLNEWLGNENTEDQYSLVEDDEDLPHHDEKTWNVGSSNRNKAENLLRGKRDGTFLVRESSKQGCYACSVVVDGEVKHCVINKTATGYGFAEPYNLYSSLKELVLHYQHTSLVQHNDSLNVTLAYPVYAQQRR
Procedure: Recombinant PI3K p110α/p85 was prepared in-house. Phosphatidylinositol (PtdIns), phosphotidylserine (PtdSer) and all other unspecified chemicals were purchased from Sigma-Aldrich. [γ^33P]ATP and Optiphase scintillant were obtained from Perkin Elmer.
Assays were performed in a final assay volume of 25 μL in 384-well Maxisorp plates (Nunc). Compounds were tested at 8 concentrations in 3-fold serial dilution, generally starting from 10 μM. Maxisorp plates were coated with 20 μL/well of a 1:1 mixture of PtdIns and PtdSer [0.1 mg/mL each dissolved in chloroform:ethanol (3:7)] and left overnight in a fume hood at room temperature (RT) to dry.
The enzyme reaction was created by pipetting 5 μL/well of compound (in 2.5% DMSO), 10 μL/well of enzyme (0.5 μg/mL p110α+1 μg/mL p85), and 10 μL/well of 5 μM ATP with 5 μCi/mL [γ^33P]ATP in assay buffer (final concentrations: 0.2 μg/mL p110α, 2 μM ATP, […] [γ^33P]ATP in 1× assay buffer: 100 mM Tris-HCl pH 7.0, 200 mM NaCl, 8 mM MgCl2). The reaction was incubated for 1 hour at RT and terminated with 30 μL/well of 50 mM EDTA solution. The plate was then washed twice with TBS, dried, and added with 30 μL/well of scintillant before it was counted in a MicroBeta Trilux.

DU145 = assay: Cell-based proliferation assay, DU145; conditions: Homo sapiens, DU-145; DU145 cells, 96 h treatment
Procedure: (§1) Human cancer cell lines PC3 and DU145 (human prostate cancer cell lines), were obtained from ATCC. They were cultured in the media according to the ATCC work instructions. PC3 and DU145 cells were seeded at 1,000 cells per well in 96-well plates, respectively. The plates were incubated at 37° C., 5% CO2, for 24 h. Cells were treated with compounds at various concentrations for 96 h. Cell proliferation was then quantified using Celltiter96 Aqueous One Solution Cell Proliferation Assay from Promega (Madison Wis.). Dose response curves were plotted to determine IC50 values for the compounds using XL-fit (ID Business Solution, Emeryville, Calif.).

PC3 = assay: Cell-based proliferation assay, PC3; conditions: Homo sapiens, PC-3; PC3 cells, 96 h treatment
Procedure: as §1

Sequence of mTOR (P42345 1382-2549 limits assumed): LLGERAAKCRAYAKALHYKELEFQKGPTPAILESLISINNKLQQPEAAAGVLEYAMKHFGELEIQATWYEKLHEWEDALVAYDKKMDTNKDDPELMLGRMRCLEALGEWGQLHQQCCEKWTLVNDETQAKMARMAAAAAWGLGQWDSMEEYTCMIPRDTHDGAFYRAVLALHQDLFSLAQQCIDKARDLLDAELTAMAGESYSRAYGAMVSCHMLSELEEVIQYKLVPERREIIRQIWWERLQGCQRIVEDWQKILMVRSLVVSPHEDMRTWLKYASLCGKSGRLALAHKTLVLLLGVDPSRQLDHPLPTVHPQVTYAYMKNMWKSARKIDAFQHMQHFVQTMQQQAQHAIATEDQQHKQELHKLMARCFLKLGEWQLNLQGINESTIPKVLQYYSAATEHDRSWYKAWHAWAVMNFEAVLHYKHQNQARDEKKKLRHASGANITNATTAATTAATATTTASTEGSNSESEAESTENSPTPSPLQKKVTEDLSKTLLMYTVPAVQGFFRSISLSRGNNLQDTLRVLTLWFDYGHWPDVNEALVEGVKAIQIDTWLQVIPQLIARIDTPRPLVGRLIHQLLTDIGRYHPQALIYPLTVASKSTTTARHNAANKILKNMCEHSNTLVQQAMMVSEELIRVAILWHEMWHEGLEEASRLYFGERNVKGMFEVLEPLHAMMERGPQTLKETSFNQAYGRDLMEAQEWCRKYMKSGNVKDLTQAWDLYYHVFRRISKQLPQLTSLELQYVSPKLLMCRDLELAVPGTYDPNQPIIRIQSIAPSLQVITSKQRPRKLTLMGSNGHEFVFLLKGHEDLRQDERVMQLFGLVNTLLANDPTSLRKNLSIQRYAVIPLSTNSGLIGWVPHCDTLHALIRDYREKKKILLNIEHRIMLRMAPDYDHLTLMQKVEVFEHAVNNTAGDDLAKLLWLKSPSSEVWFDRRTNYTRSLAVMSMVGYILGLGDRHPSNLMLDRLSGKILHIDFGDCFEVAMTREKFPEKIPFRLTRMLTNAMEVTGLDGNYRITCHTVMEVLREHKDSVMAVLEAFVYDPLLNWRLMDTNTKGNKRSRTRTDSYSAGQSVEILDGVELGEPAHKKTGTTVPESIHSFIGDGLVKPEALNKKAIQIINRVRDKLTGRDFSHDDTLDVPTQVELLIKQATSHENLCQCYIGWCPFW

| IC50 (mTOR) [nM] | IC50 (PI3K p110α/p85) [nM] | IC50 (DU145) [nM] | IC50 (PC3) [nM] | SMILES | IC50 [1] |
| --- | --- | --- | --- | --- | --- |
| – | – | – | – | CO[C@H]1C[C@@H]2CC[C@@H](C)[C@@](O)(O2)C(=O)C(=O)N2CCCC[C@H]2C(=O)O[C@H]([C@H](C)C[C@@H]2CC[C@@H](OC(=O)C(C)(CO)CO)[C@H](OC)C2)CC(=O)[C@H](C)/C=C(\C)[C@@H](O)[C@@H](OC)C(=O)[C@H](C)C[C@H](C)/C=C/C=C/C=C/1C [CCI-779] | low nanomolar range |
| < 1000 | < 1000 | 1000 to 5000 | – | Oc1cccc(-c2nc(N3CCOCC3)nc3c2ncn3Cc2ccccc2)c1 [Compound 2] | – |
| < 1000 | < 1000 | 1000 to 5000 | – | COc1ccc(Cn2cnc3c(-c4cccc(O)c4)nc(N4CCOCC4)nc32)cc1 [Compound 8] | – |
| < 1000 | < 1000 | ≤ 1000 | – | C=CCCn1cnc2c(-c3cccc(O)c3)nc(N3CCOCC3)nc21 [Compound 22] | – |
| < 1000 | < 1000 | – | ≤ 1000 | Cc1cccc(-n2cnc3c(-c4cccc(O)c4)nc(N4CCOCC4)nc32)c1 [Compound 27, 3-(2-Morpholin-4-yl-9-(3-methylphenyl)-9H-purin-6-yl)-phenol] | – |
| < 1000 | < 1000 | 1000 to 5000 | – | N#CCn1cnc2c(-c3cccc(O)c3)nc(N3CCOCC3)nc21 [Compound 35] | – |
| < 1000 | < 1000 | 1000 to 5000 | – | CC(c1ccccc1)n1cnc2c(-c3cccc(O)c3)nc(N3CCOCC3)nc21 (stereo not shown) [Compound 36] | – |
| < 1000 | < 1000 | ≤ 1000 | – | Oc1cccc(-c2nc(N3CCOCC3)nc3c2ncn3CC2CC2)c1 [Compound 50] | – |
| < 1000 | < 1000 | 1000 to 5000 | – | c1cc(-c2nc(N3CCOCC3)nc3c2ncn3CC2CC2)c2cc[nH]c2c1 [Compound 51] | – |
| < 1000 | < 1000 | ≤ 1000 | ≤ 1000 | Oc1cccc(-c2nc(N3CCOCC3)nc3c2ncn3C2CCCC2)c1 [Compound 54] | – |
| < 1000 | < 1000 | 1000 to 5000 | – | c1cc(-c2nc(N3CCOCC3)nc3c2ncn3C2CCCC2)c2cc[nH]c2c1 [Compound 63] | – |
| < 1000 | < 1000 | – | ≤ 1000 | CC(C)C(C)n1cnc2c(-c3cccc4[nH]ccc34)nc(N3CCOCC3)nc21 (stereo not shown) [Compound 101] | – |
| < 1000 | < 1000 | – | – | CCNc1nc2c(-c3cccc(O)c3)nc(N3CCOCC3)nc2n1C(C)CC (stereo not shown) [Compound 122] | – |
| < 1000 | < 1000 | – | – | CCC(C)n1c(NC(C)C)nc2c(-c3cccc(O)c3)nc(N3CCOCC3)nc21 (stereo not shown) [Compound 123, 3-(9-sec-Butyl-8-isopropylamino-2-morpholin-4-yl-9H-purin-6-yl)-phenol] | – |
| < 1000 | < 1000 | – | – | CCC(C)n1c(SC)nc2c(-c3cccc(O)c3)nc(N3CCOCC3)nc21 (stereo not shown) [Compound 124, 3-(9-sec-Butyl-8-methylsulfanyl-2-morpholin-4-yl-9H-purin-6-yl)-phenol] | – |
| < 1000 | < 1000 | – | – | CCC(C)n1c(N2CCCC2)nc2c(-c3cccc(O)c3)nc(N3CCOCC3)nc21 (stereo not shown) [Compound 125] | – |

| IC50 (mTOR) [nM] | IC50 (PI3K p110α/p85) [nM] | IC50 (DU145) [nM] | IC50 (PC3) [nM] | SMILES | IC50 [1] |
| --- | --- | --- | --- | --- | --- |
| < 1000 | < 1000 | – | – | CCC(C)n1c(-c2ccccc2)nc2c(-c3cccc(O)c3)nc(N3CCOCC3)nc21 (stereo not shown) [Compound 126] | – |
| < 1000 | < 1000 | – | – | CCC(C)n1c(NCCN(C)C)nc2c(-c3cccc(O)c3)nc(N3CCOCC3)nc21 (stereo not shown) [Compound 127] | – |
| < 1000 | < 1000 | – | – | CCC(C)n1c(NCCOC)nc2c(-c3cccc(O)c3)nc(N3CCOCC3)nc21 (stereo not shown) [Compound 128] | – |
| < 1000 | < 1000 | – | – | CCC(C)n1c(Cl)nc2c(-c3cccc(O)c3)nc(N3CCOCC3)nc21 (stereo not shown) [Compound 129] | – |
| < 1000 | < 1000 | – | – | CCC(C)n1c(S(C)(=O)=O)nc2c(-c3cccc(O)c3)nc(N3CCOCC3)nc21 (stereo not shown) [Compound 130, 3-(9-sec-Butyl-8-methanesulfonyl-2-morpholin-4-yl-9H-purin-6-yl)-phenol] | – |
| < 1000 | < 1000 | – | – | Nc1ccc(-c2nc(N3CCOCC3)nc3c2ncn3Cc2cccc([N+](=O)[O-])c2)cn1 [Compound 131] | – |
| < 1000 | < 1000 | – | – | CCC(C)n1cnc2c(-c3ccc(N)nc3)nc(N3CCOCC3)nc21 (stereo not shown) [Compound 132, 5-(9-sec-Butyl-2-morpholin-4-yl-9H-purin-6-yl)-pyridin-2-ylamine] | – |
| < 1000 | < 1000 | – | – | Nc1ccc(-c2nc(N3CCOCC3)nc3c2ncn3C2CCCC2)cn1 [Compound 133] | – |
| < 1000 | < 1000 | – | – | COCC(C)n1cnc2c(-c3ccc(N)nc3)nc(N3CCOCC3)nc21 (stereo not shown) [Compound 134, 5-[9-(2-Methoxy-1-methyl-ethyl)-2-morpholin-4-yl-9H-purin-6-yl]-pyrirlin-2-ylamino] | – |
| < 1000 | < 1000 | – | – | CC(C)n1cnc2c(-c3ccc(N)nc3)nc(N3CCOCC3)nc21 [Compound 135] | – |
| < 1000 | < 1000 | – | – | CC(C)C(C)n1cnc2c(-c3ccc(N)nc3)nc(N3CCOCC3)nc21 (stereo not shown) [Compound 136] | – |
| < 1000 | 1000 to 5000 | – | – | CCC(C#N)n1cnc2c(-c3ccc(N)nc3)nc(N3CCOCC3)nc21 (stereo not shown) [Compound 137] | – |
| < 1000 | < 1000 | – | – | CCC(CC)n1cnc2c(-c3ccc(N)nc3)nc(N3CCOCC3)nc21 [Compound 138] | – |
| > 5000 | > 5000 | – | – | N#CCn1cnc2c(-c3ccc(O)nc3)nc(N3CCOCC3)nc21 [Compound 139] | – |
| > 5000 | 1000 to 5000 | – | – | COCCn1cnc2c(-c3cncc(F)c3)nc(N3CCOCC3)nc21 [Compound 140] | – |

Source: patent US20110009403A1, “2-MORPHOLINYLPURINES AS INHIBITORS OF PI3K” (S*BIO Pte Ltd., priority 2007, published 2011)
